Read-outs that look alike come from different tables or passages of the source.
Legend:
[1] = tested on: monoclonal F12-3C8 antibody (anti-petroleum); test: Cross-reactivity of immunoassay: concentration needed to provide a positive result; type: binding, mouse (Balb/c); conditions: test compounds dissolved in methanol
Description: (§1) Female Balb/c mice received a primary subcutaneous immunization with 50 ug of xylene derivatized to bovine serum albumin in adjuvant (MPL+TDM Emulsion, RIBI Immunochem Research, Inc., Hamilton, Mont.). Subcutaneous secondary injections (25 ug) were given at day 21, 35, and then monthly. The production of monoclonal antibodies was performed according to conventional procedures (see Milstein, Cancer, 49:1953-1957 (1982)). Hybridoma cultures producing monoclonal antibodies recognizing free hapten by EIA were cloned by limiting dilution. Clone F12-3C8 was selected based upon specificity, and interference criteria.
(§2) Antibody coated tubes were prepared by passively coating polystyrene (12×75 mm, NUNC) tubes with the monoclonal F12-3C8 antibody diluted in PBS and incubating overnight.
(§3) 10 g of a soil sample were placed in an extraction vial containing 20 mL of methanol and 5 steel pellets (6 mm) and the vial and its contents shaken for 1 minute to disperse the soil particles and extract the petroleum hydrocarbons. The sample was then filtered to clarify the sample using a filter of glass fiber and 0.45μTeflon. 45 uL of the clarified filtrate sample was mixed with 955 μl of 10 mM PBS (pH=7.4) and the resulting mixture added to lyophilized enzyme conjugate reagent (0.3 μg) and mixed. At the same time, 2×45 uL of the xylene standard are similarly treated. The sample and the two standards were then poured into three identical antibody coated tubes, respectively, and the resulting solution mixed. The resulting solution was incubated for 10 minutes at ambient temperature and then washed 4× with a wash buffer (detergent-saline solution). 250 uL of tetramethylbenzidene solution (KP Laboratories, Cat. No. 50-76-02) was added along with 250 uL of hydrogen peroxide solution (KPL, Cat. No. 50-65-02) and the resultant solution mixed. After incubating for 2.5 minutes the color development reaction was stopped with 250 uL of stop solution (1M sulfuric acid).
Cross-reactivity of the immunoassay of the present
invention. The test compounds were dissolved in
methanol and assayed. The values listed are the
concentration of compound needed to provide a […]

[2] = tested on: monoclonal F12-3C8 antibody (anti-petroleum); test: Cross-reactivity of immunoassay relative to m-xylene; type: binding, mouse (Balb/c); conditions: for ED50: calculated from a dose response curve
Description: as §1, with “dilution.” for “dilution. Clone F12-3C8 was selected based upon specificity, and interference criteria.”
as §2, §3
The ED50 value was calculated from a dose response curve.
Percent CrossReactivity = ((mXylene ED50 /Compound ED50) .times

[3] = (m-Xylene ED50 / Compound ED50) x 100, m-xylene = 100%

CCCCCC [Hexane]
Conc. where positive [1]: 300 ppm

c1ccc2c(c1)ccc1ccccc12 [Phenanthrene]
% Cross-Reactivity [2, 3]: 848% | ED50 ([2]; 10 min): 57 ppb | Conc. where positive [1]: 10 ppm

c1ccc2ccccc2c1 [Naphthalene]
% Cross-Reactivity [2, 3]: 4,390% | ED50 ([2]; 10 min): 11 ppb | Conc. where positive [1]: 2.5 ppm

CCCCCCCCC [n-Nonane]
% Cross-Reactivity [2, 3]: < 1% | ED50 [2]: Negative

Xylene
Conc. where positive [1]: 100 ppm

c1ccccc1 [Benzene]
% Cross-Reactivity [2]: < 1% | Conc. where positive [1]: > 10,000 ppm

CCCCCCCCCCCCCC [n-Tetradecane]
% Cross-Reactivity [2, 3]: < 1% | ED50 [2]: Negative

Cc1ccccc1 [Toluene]
% Cross-Reactivity [2, 3]: 22% | ED50 ([2]; 10 min): 2,210 ppb | Conc. where positive [1]: 300 ppm

CCCCCCCCCCC [n-Undecane]
% Cross-Reactivity [2, 3]: < 1% | ED50 [2]: Negative

CC(C)CC(C)(C)C [Isooctane]
Conc. where positive [1]: 100 ppm

C1CCCCC1 [Cyclohexane]
% Cross-Reactivity [2, 3]: 7% | ED50 ([2]; 10 min): 6,636 ppb

CC(C)CC(C)(C)C [2,2,4-Trimethylpentane]
% Cross-Reactivity [2, 3]: < 1% | ED50 [2]: Negative

CCCCC(C)C [2-Methylhexane]
% Cross-Reactivity [2, 3]: 43% | ED50 ([2]; 10 min): 1,113 ppb

CCCCCCCC [n-Octane]
% Cross-Reactivity [2, 3]: 11% | ED50 ([2]; 10 min): 4,589 ppb

CCCCCCCCCCCCC [n-Tridecane]
% Cross-Reactivity [2, 3]: < 1% | ED50 [2]: Negative

CCCC(C)C [2-Methylpentane]
% Cross-Reactivity [2, 3]: 57% | ED50 ([2]; 10 min): 851 ppb

CCCCCCC [Heptane]
Conc. where positive [1]: 300 ppm

Cc1ccc(C)cc1 [p-Xylene]
% Cross-Reactivity [2, 3]: 38% | ED50 ([2]; 10 min): 1,255 ppb

CCCCCCC [n-Heptane]
% Cross-Reactivity [2, 3]: 30% | ED50 ([2]; 10 min): 1,669 ppb

CCCCCCCCCCC [Undecane]
Conc. where positive [1]: > 10,000 ppm

Cc1ccccc1C [o-Xylene]
% Cross-Reactivity [2, 3]: 271% | ED50 ([2]; 10 min): 178 ppb

c1cc2c3c(cccc3c1)CC2 [Acenaphthene]
% Cross-Reactivity [2, 3]: 5,378% | ED50 ([2]; 10 min): 9 ppb | Conc. where positive [1]: 2.5 ppm

Methylnaphthalene
% Cross-Reactivity [2, 3]: 780% | ED50 ([2]; 10 min): 62 ppb | Conc. where positive [1]: 10 ppm

CCc1ccccc1 [Ethylbenzene]
% Cross-Reactivity [2]: 275% | ED50 ([2]; 10 min): 176 ppb

Cc1cccc(C)c1 [m-Xylene, reference compound]
% Cross-Reactivity [2, 3]: 100% | ED50 ([2]; 10 min): 483 ppb

Source: patent US5691148A, “Petroleum immunoassay method, its components and a kit for use in performing the same” (ENSYS, Inc., priority 1994, dated 1997)
